Reference: PubChem BioAssay (NCI)
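Dose response: 5 concentrations. Exposure: 48 h. Format: 96-well plates. Endpoint: linear interpolation; highest concentration if not reached. Here, GI50 denotes the concentration required for 50% inhibition of growth. TGI is the concentration that stops growth completely.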

Columns and labels:
Test in all cases: growth of human tumour cells (NCI), 48 h
U251 CNS = test system: U251 CNS
UACC-62 melanoma = test system: UACC-62 melanoma
MOLT-4 leukemia = test system: MOLT-4 leukemia
ACHN renal = test system: ACHN renal
NCI-H23 lung = test system: NCI-H23 lung
RPMI-8226 leukemia = test system: RPMI-8226 leukemia
SK-OV-3 ovarian = test system: SK-OV-3 ovarian
K-562 leukemia = test system: K-562 leukemia
MDA-MB-435 = test system: MDA-MB-435
KM12 colon = test system: KM12 colon
SNB-75 CNS = test system: SNB-75 CNS
HCT-116 colon = test system: HCT-116 colon
NCI/ADR-RES ovarian = test system: NCI/ADR-RES ovarian
A549 NSCLC = test system: A549 NSCLC
MDA-MB-231 breast = test system: MDA-MB-231 breast
NCI-H226 lung = test system: NCI-H226 lung
HCC-2998 colon = test system: HCC-2998 colon
SN12C renal = test system: SN12C renal
HT29 colon = test system: HT29 colon
HL-60(TB) leukemia = test system: HL-60(TB) leukemia
EKVX NSCLC = test system: EKVX NSCLC
M14 melanoma = test system: M14 melanoma
OVCAR-5 ovarian = test system: OVCAR-5 ovarian
HCT-15 colon = test system: HCT-15 colon
PC-3 prostate = test system: PC-3 prostate
SK-MEL-2 melanoma = test system: SK-MEL-2 melanoma
SF-539 CNS = test system: SF-539 CNS
DU-145 prostate = test system: DU-145 prostate
UACC-257 melanoma = test system: UACC-257 melanoma
SK-MEL-5 melanoma = test system: SK-MEL-5 melanoma
SW-620 colon = test system: SW-620 colon
CAKI-1 renal = test system: CAKI-1 renal
COLO 205 colon = test system: COLO 205 colon
OVCAR-3 ovarian = test system: OVCAR-3 ovarian
SR leukemia = test system: SR leukemia
OVCAR-4 ovarian = test system: OVCAR-4 ovarian
SF-268 CNS = test system: SF-268 CNS
SK-MEL-28 melanoma = test system: SK-MEL-28 melanoma
T-47D breast = test system: T-47D breast
A498 renal = test system: A498 renal
UO-31 renal = test system: UO-31 renal
TK-10 renal = test system: TK-10 renal
SNB-19 CNS = test system: SNB-19 CNS
NCI-H460 lung = test system: NCI-H460 lung
NCI-H522 lung = test system: NCI-H522 lung
786-0 renal = test system: 786-0 renal
HOP-62 NSCLC = test system: HOP-62 NSCLC
LOX IMVI melanoma = test system: LOX IMVI melanoma
CCRF-CEM leukemia = test system: CCRF-CEM leukemia
OVCAR-8 ovarian = test system: OVCAR-8 ovarian
IGROV1 ovarian = test system: IGROV1 ovarian
MCF7 breast = test system: MCF7 breast
HS 578T breast = test system: HS 578T breast
MALME-3M melanoma = test system: MALME-3M melanoma
BT-549 breast = test system: BT-549 breast
HOP-92 NSCLC = test system: HOP-92 NSCLC
SF-295 CNS = test system: SF-295 CNS
RXF 393 renal = test system: RXF 393 renal

Question: What does the source list for `CCCC(=O)NC(c1ccc(N(CC)CC)cc1)c1cc(C)c2cccnc2c1O` (stereo not drawn)?
Answer: GI50 (U251 CNS): 386 nM; TGI (U251 CNS): > 100000 nM; GI50 (UACC-62 melanoma): 347 nM; TGI (UACC-62 melanoma): 1390 nM; GI50 (MOLT-4 leukemia): 397 nM; TGI (MOLT-4 leukemia): > 100000 nM; GI50 (ACHN renal): 422 nM; TGI (ACHN renal): > 24300 nM; GI50 (NCI-H23 lung): 462 nM; TGI (NCI-H23 lung): > 100000 nM; GI50 (RPMI-8226 leukemia): 520 nM; TGI (RPMI-8226 leukemia): > 100000 nM; GI50 (SK-OV-3 ovarian): 635 nM; TGI (SK-OV-3 ovarian): > 100000 nM; GI50 (K-562 leukemia): 336 nM; TGI (K-562 leukemia): > 100000 nM; GI50 (MDA-MB-435): 409 nM; TGI (MDA-MB-435): > 48600 nM; GI50 (KM12 colon): 454 nM; TGI (KM12 colon): > 100000 nM; GI50 (SNB-75 CNS): 199 nM; TGI (SNB-75 CNS): 1800 nM; GI50 (HCT-116 colon): 381 nM; TGI (HCT-116 colon): > 100000 nM; GI50 (NCI/ADR-RES ovarian): 366 nM; TGI (NCI/ADR-RES ovarian): > 100000 nM; GI50 (A549 NSCLC): 737 nM; TGI (A549 NSCLC): > 100000 nM; GI50 (MDA-MB-231 breast): 539 nM; TGI (MDA-MB-231 breast): > 100000 nM; GI50 (NCI-H226 lung): 513 nM; TGI (NCI-H226 lung): 4260 nM; GI50 (HCC-2998 colon): 570 nM; TGI (HCC-2998 colon): > 100000 nM; GI50 (SN12C renal): 828 nM; TGI (SN12C renal): > 100000 nM; GI50 (HT29 colon): 492 nM; TGI (HT29 colon): > 100000 nM; GI50 (HL-60(TB) leukemia): 331 nM; TGI (HL-60(TB) leukemia): 4850 nM; GI50 (EKVX NSCLC): 313 nM; TGI (EKVX NSCLC): 5040 nM; GI50 (M14 melanoma): 462 nM; TGI (M14 melanoma): 5120 nM; GI50 (OVCAR-5 ovarian): 791 nM; TGI (OVCAR-5 ovarian): > 100000 nM; GI50 (HCT-15 colon): 323 nM; TGI (HCT-15 colon): > 100000 nM; GI50 (PC-3 prostate): 477 nM; TGI (PC-3 prostate): > 100000 nM; GI50 (SK-MEL-2 melanoma): 399 nM; TGI (SK-MEL-2 melanoma): > 42000 nM; GI50 (SF-539 CNS): 462 nM; TGI (SF-539 CNS): 4560 nM; GI50 (DU-145 prostate): 710 nM; TGI (DU-145 prostate): > 100000 nM; GI50 (UACC-257 melanoma): 834 nM; TGI (UACC-257 melanoma): > 24600 nM; GI50 (SK-MEL-5 melanoma): 639 nM; TGI (SK-MEL-5 melanoma): 5530 nM; GI50 (SW-620 colon): 522 nM; TGI (SW-620 colon): > 100000 nM; GI50 (CAKI-1 renal): 381 nM; GI50 (COLO 205 colon): 398 nM; TGI (COLO 205 colon): > 100000 nM; GI50 (OVCAR-3 ovarian): 374 nM; TGI (OVCAR-3 ovarian): > 100000 nM; GI50 (SR leukemia): 388 nM; TGI (SR leukemia): > 54400 nM; GI50 (OVCAR-4 ovarian): 394 nM; TGI (OVCAR-4 ovarian): > 100000 nM; GI50 (SF-268 CNS): 438 nM; TGI (SF-268 CNS): 32600 nM; GI50 (SK-MEL-28 melanoma): 561 nM; TGI (SK-MEL-28 melanoma): > 100000 nM; GI50 (T-47D breast): 675 nM; TGI (T-47D breast): > 100000 nM; GI50 (A498 renal): > 100000 nM; TGI (A498 renal): > 100000 nM; GI50 (UO-31 renal): 302 nM; TGI (UO-31 renal): 5670 nM; GI50 (TK-10 renal): 489 nM; TGI (TK-10 renal): > 100000 nM; GI50 (SNB-19 CNS): 464 nM; TGI (SNB-19 CNS): > 100000 nM; GI50 (NCI-H460 lung): 247 nM; GI50 (NCI-H522 lung): 319 nM; GI50 (786-0 renal): 763 nM; TGI (786-0 renal): > 38500 nM; GI50 (HOP-62 NSCLC): 511 nM; TGI (HOP-62 NSCLC): > 100000 nM; GI50 (LOX IMVI melanoma): 496 nM; TGI (LOX IMVI melanoma): > 100000 nM; GI50 (CCRF-CEM leukemia): 407 nM; TGI (CCRF-CEM leukemia): > 100000 nM; GI50 (OVCAR-8 ovarian): 381 nM; TGI (OVCAR-8 ovarian): > 100000 nM; GI50 (IGROV1 ovarian): 439 nM; TGI (IGROV1 ovarian): 14600 nM; GI50 (MCF7 breast): 303 nM; TGI (MCF7 breast): > 100000 nM; GI50 (HS 578T breast): 358 nM; TGI (HS 578T breast): > 100000 nM; GI50 (MALME-3M melanoma): 1450 nM; TGI (MALME-3M melanoma): > 87300 nM; GI50 (BT-549 breast): 1040 nM; TGI (BT-549 breast): > 59200 nM; GI50 (HOP-92 NSCLC): 306 nM; TGI (HOP-92 NSCLC): > 100000 nM; GI50 (SF-295 CNS): 352 nM; TGI (SF-295 CNS): > 100000 nM; GI50 (RXF 393 renal): 1450 nM; TGI (RXF 393 renal): > 26900 nM
